These results are taken from patent publication US20230310427A1, “NEW THERAPEUTIC USE OF RILPIVIRINE” (UNIVERSITY OF SOUTH AUSTRALIA, priority 2020, published 2023).

The subject of experiment [1] is cyclin D1 mRNA in A2780 cells. The experiment is described as follows: RT-qPCR. The experiment is classed as cell-based. As to conditions: 24 hours. The protocol:
(§1) The expression of different genes at the mRNA level was assayed by RT-qPCR. Briefly, cells (1×10^6) were seeded in 10 cm tissue culture plates and treated with compounds after having been cultured overnight at 37° C., 5% CO2. RNA was extracted using the High Pure RNA Isolation Kit (Roche Applied Science, Castle Hill, NSW, Australia) according to the manufacturer’s instructions. The concentration of RNA in each sample was determined using a NanoDrop® ND1000 spectrophotometer (ThermoFisher Scientific, Waltham, MA, United States of America). 1 µg of RNA was used in a 20 µL reverse transcription reaction using a Transcriptor First Strand cDNA Synthesis Kit (Roche Applied Science). RT-qPCR was completed using duplicate samples with cDNA using SYBR Green I dye (Roche Applied Science) and performed using Light Cycler LC96 (Roche Applied Science, Penzberg, Germany). GAPDH mRNA was used as a reference sequence and data was analysed using Bio-Rad CFX manager version 3.1.
(In qPCR the cycle at which signal appears reflects the starting amount.)

A further experiment relates to p53 mRNA in A2780 cells. Description: RT-qPCR. The experiment is classed as cell-based. To be noted: 24 hours. The protocol: as §1
Experiment [2] deals with Leukemia (HL-60, U-937, NB4, Jurkat, K-562), ovarian (A2780), prostate (PC3) and breast (T47D) cancer cell lines. Description: Cell viability assays (MTT and resazurin). The experiment is classed as cell-based. To be noted: 72 hour treatment; range over all cell lines tested; read-out: IC50, inhibition of cancer cell proliferation. An excerpt: The MTT (3-(4,5-dimethylthiazol-2-yl)-2,5-diphenyl tetrazolium bromide; Sigma-Aldrich, St Louis, MO, United States of America) assay was used to determine half maximal inhibition values (IC50) in response to drug treatment using a number of different adherent cancer cell lines. The MTT was converted by metabolically active cells into an insoluble formazan product which was solubilised with 100% DMSO. The solubilised formazan gives absorbance at 560 nm which is directly proportional to the number of viable cells. The assay was carried out as previously described (Wang S et al., J Med Chem 47(7):1662-1675, 2004). The absorbance of treated wells was read using an EnVision multi-label plate reader. The resazurin assay was carried out for non-adherent cell lines as reported previously (Yu M et al., EJMC 95:116-126, 2015). IC50 values were determined by non-linear regression analysis using GraphPad Prism software.
For orientation: Alamar Blue is a resazurin reagent that responds to reducing activity.

In a further experiment the test system is A2780 cells. Description: Colony formation assay. The experiment is classed as cell-based. To be noted: data not shown. The protocol: A total of 1000-1500 cells/well were plated on a 6 well plate and allowed to adhere for 6-8 hours. Appropriate concentrations of Rilpivirine were added and then the cells were put back into the incubator for 7-14 days. The medium was changed every 3 days. After the incubation, the cells were washed with 1 ml PBS carefully. Cells were then fixed with 1 % Formaldehyde and stained with crystal violet. Colonies were counted with >50 cells by eye and images were taken using a camera fitted with microscope.

Experiment [3] has as its system expanded panel of 429 different kinases. Description: Kinase profiling, expanded panel. As to conditions: 1 µM. The experiment is classed as biochemical. The method, then:
The ability of compounds to inhibit kinases was measured using ADP-Glo^Tm assay kits (Promega, Madison, WI, United States of America) or externally using radioisotope based assays (Reaction Biology Corporation, Malvern, PA, United States of America and Eurofins discovery services, France). The ADP-Glo assay was performed as reported previously (Basnet SK et al., Mol Pharmacol 88(5):935-948, 2015).The assay plate was read for luminescence using Envision multi-label plate reader (PerkinElmer, Waltham, MA, United States of America). Half-maximal inhibition (IC50) values were determined from a plot of percent residual activity versus concentration of test compounds using GraphPad Prism software. Ki values were calculated from IC50 values using the Cheng-Prusoff equation: Ki= IC50/ [1 + ([ATP]/Km ATP)], where [ATP] is the ATP concentration used for the IC50 determination and Km ATP for each kinase is determined from an individual experiment.
In a subsequent kinase profiling experiment, using an expanded panel of 429 different kinases, the inhibitory activity of Rilpivirine was confirmed using a reduced concentration of 1 µM. […] The percent inhibition against Aurora A, PIM1, LYN and YES kinases were 86, 78, 77 and 83% respectively at the concentration of 1 µM of Rilpivirine. The other 424 kinases were inhibited by less than 70 % at this concentration.

With `Cc1cc(/C=C/C#N)cc(C)c1Nc1ccnc(Nc2ccc(C#N)cc2)n1` [Rilpivirine, 4-[[4-[4-[(E)-2-cyanoethenyl]-2,6-dimethylanilino]pyrimidin-2-yl]amino]benzonitrile], in experiment [1], the “cyclin D1 mRNA” value is given as “decrease in cyclin D1mRNA was observed in a dose-dependent manner”. Besides, the “p53 mRNA expression” value with p53 mRNA in A2780 cells (20 µM) is given as “dramatic increase in p53 expression”; in the experiment with p53 mRNA in A2780 cells (increasing concentration), “upregulated p53 expression”. The IC50 in experiment [2] fell in the range of 3 to 8 µM. Besides, the clonogenic survival entry with A2780 cells is on record as “clear inhibition of clonogenic survival”. Besides, in experiment [3], the “percent inhibition of the other 424 kinases” value is recorded as “less than 70%”. Moreover, the kinase selectivity entry in experiment [3] (panel of 429 kinases) is reported as “selective inhibitor of Aurora A”.
